Laboratory results published in patent US4582827A, “Pesticidal diphenylaziridines” (priority 1983, dated 1986).

Columns and labels:
[1] = tested on: tobacco hornworm (Manduca sexta) larvae; test: Tobacco hornworm growth and developmental responses to feeding on diets containing the compounds; format: in vivo; details: for oral activity: diet, Example 2
[2] = Acute oral toxicity test using the rat; details: in vivo
Excerpt: In these studies, it has been determined that the 1,2-diphenylaziridines of this invention have low mammalian toxicity.
Immediate effects, resulting from insecticide toxicity, are usually related to the principal toxic action of the compound.

[3] = tested on: Salmonella typhimurium strains TA 98, TA 100, TA 1535, TA 1537, TA 1538, TA 1978; test: Ames assay (spot test), revertant colonies; format: cell-based
Method: This means that aziridine compounds, 1, 10, or 11, will not cause mutations in DNA arising from potential changes in frame shift and/or base pairing. Compounds 1, 10 and 11 were tested for mutagenic properties using the following experimental procedure.
Potential mutagenic and carcinogenic properties of the compounds were evaluated with standard Ames assay procedures (Ames et al, "Mutation Res.", 31, p. 347, 1975). This assay used strains of Salmonella typhimurium selected for sensitivity and specificity in being reverted from a histidine requirement back to prototrophy by a wide variety of mutagens. Potential changes in frameshift were evaluated using strains TA 98, TA 1537 and TA 1538, while changes in base pairing were detected using strains TA 100 and TA 1535. In addition, strain TA 1978 was used, in combination with TA 1538, to evaluate whether the agent killed bacteria by damage to DNA that could be repaired by this strain. Initially, the compounds were screened using the spot test, in which 1000 μgm of material dissolved in 10 μl of DNSO was applied to the middle of the plate.
Dose-response tests were not performed because the results were negative. All the tests were carried out in the presence and absence of an S9 rat liver preparation and contained a positive control (2-acetylaminofluorene,AAF) and a negative control (DMSO).

[4] = tested on: tobacco hornworm larvae (newly ecdysed fifth-instar); test: Topical application to tobacco hornworm larvae; format: in vivo, Manduca sexta
Method: The test compounds were dissolved either in acetone or hexane and applied to the integument of the test insect with a micro applicator. Newly ecdysed fifth-instar tobacco hornworm larvae weighing between 1-1.5 g were used and toxicity data were obtained in the same way as previously described.

H. virescens = test: Incorporation into H. virescens diet; format: in vivo, Heliothis virescens; details: as much as 20 mM in diet
Method: Compounds 1, 10, 11, 13 and 14 were incorporated into H. virescens diet in the same manner as M. Sexta. Diets containing as much as 20 mM of each compound had little effect on larval development time, pupal weight or time to adult emergence.

[5] = tested on: Ostrinia nubilalis (larvae); test: Topical application study, Ostrinia nubilalis larvae; format: in vivo; details: 6250 μg/g, approx. 80 mg; nearing pupation size at time of treatment
Excerpt: (§1) Preliminary tests with topical applications of Compound 13 have been conducted on a number of insect species representing 5 different orders. Since the same amount of compound was used, regardless of body size, the smaller species received a larger dose/body mass. More extensive work will be required to establish LD50 values. […]

[6] = tested on: Popillia japonica (larvae); test: Topical application study, Popillia japonica larvae; format: in vivo; details: 500 μg/g, approx. 250 mg, w/in 24 hr
Excerpt: as §1

[7] = tested on: Podisus maculiventris (nymphs & adults); test: Topical application study, Podisus maculiventris nymphs & adults; format: in vivo; details: 10,000 μg/g
Excerpt: as §1

Musca domestica (Adult) = test: Topical application study, Musca domestica adult; format: in vivo; details: 25,000 μg/g
Excerpt: as §1

[8] = tested on: Periplaneta americana (adult); test: Topical application study, Periplaneta americana adult; format: in vivo; details: 666 μg/g, approx. 750 mg, w/in 24 hr
Excerpt: as §1

[9] = tested on: Hyphantria cunea (larvae); test: Topical application study, Hyphantria cunea larvae; format: in vivo; details: 5000 μg/g, approx. 100 mg, w/in 24 hr
Excerpt: as §1

[10] = tested on: Malacosoma americanum (larvae); test: Topical application study, Malacosoma americanum larvae; format: in vivo; details: 1000 μg/g, approx. 500 mg, w/in 24 hr
Excerpt: as §1

Musca autumnalis (Adult) = test: Topical application study, Musca autumnalis adult; format: in vivo; details: 25,000 μg/g
Excerpt: as §1

H. virescens larvae = test: Topical application to H. virescens larvae; format: in vivo, Heliothis virescens; details: 1500 ppm topical, 200 mg 5th instars
Estigmene acrea (larvae) = test: Topical application study, Estigmene acrea larvae; format: in vivo; details: 1250 μg/g, approx. 800 mg, w/in 24 hr
Excerpt: as §1

[11] = tested on: Blattella germanica (adult); test: Topical application study, Blattella germanica adult; format: in vivo; details: 7150 μg/g, approx. 70 mg, w/in 24 hr
Excerpt: as §1

[12] = tested on: Blaberus discoidalis (nymphs); test: Topical application study, Blaberus discoidalis nymphs; format: in vivo; details: 1000 μg/g, approx. 500 mg, w/in 24 hr
Excerpt: as §1

[13] = 5 mM in diet, all tests began with 15 larvae

## Clc1ccc(N2CC2c2ccccc2Cl)cc1Cl (centres unmarked) [Compound 10, 1-(3-4-dichlorophenyl)-2-(2-chlorophenyl)aziridine]
[1]; 5 mM in diet
  % Adult Emergence: 7%
  % Malformed Adults: 100%
  % Pupation: 80%
  Days to Max Wt: 7.5 ± .3 days
  Max Larval Wt: 5.69 ± .27 g
  Mean No. of Eggs: 55 ± 0
  No. of female Adults: 1
  feeding time required to attain reduced maximum weight: extended the feeding time
  pupal mortality: significant pupal mortality
  reduction in the maximum weight of hornworm larvae: 30-50%
  wrinkled or crumpled wings of moths: observed in significant numbers of moths
[1]; [13]
  Total No. of Adults: 1
[1]
  oral activity: good oral activity
[1]; summary of Tables I and II
  pupal mortality: caused pupal mortality
[2]
  LD50: > 2000 mg/kg
[3]; strain TA 98, +S9
  Mean number of revertant colonies per plate, TA 98 +S9: 45.3 colonies per plate
[3]; strain TA 98, -S9
  Mean number of revertant colonies per plate, TA 98 -S9: 26.7 colonies per plate
[3]; strain TA 100, +S9
  Mean number of revertant colonies per plate, TA 100 +S9: 56.0 colonies per plate
[3]; strain TA 100, -S9
  Mean number of revertant colonies per plate, TA 100 -S9: 26.3 colonies per plate
[3]; strain TA 1535, +S9
  Mean number of revertant colonies per plate, TA 1535 +S9: 20.3 colonies per plate
[3]; strain TA 1535, -S9
  Mean number of revertant colonies per plate, TA 1535 -S9: 25.0 colonies per plate
[3]; strain TA 1537, +S9
  Mean number of revertant colonies per plate, TA 1537 +S9: 13.7 colonies per plate
[3]; strain TA 1537, -S9
  Mean number of revertant colonies per plate, TA 1537 -S9: 9.0 colonies per plate
[3]; strain TA 1538, +S9
  Mean number of revertant colonies per plate, TA 1538 +S9: 35.7 colonies per plate
[3]; strain TA 1538, -S9
  Mean number of revertant colonies per plate, TA 1538 -S9: 12.0 colonies per plate
[3]; strain TA 1978, +S9
  Mean number of revertant colonies per plate, TA 1978 +S9: 202.0 colonies per plate
[3]; strain TA 1978, -S9
  Mean number of revertant colonies per plate, TA 1978 -S9: 196.0 colonies per plate
[3]; with and without S9 / mammalian liver enzymes
  mutagenicity: not mutagenic
[4]; 2000 μg/larvae (1600 ppm)
  topical effect: ineffective
H. virescens
  effect on larval development time, pupal weight or time to adult emergence: little effect

## Fc1ccc(N2CC2c2ccccc2Cl)cc1 (centres unmarked) [Compound 13]
[1]; 1 mM in diet
  % Adult Emergence: 100%
  % Adults: 100%
  % Malformed Adults: 7%
  % Pupation: 100%
  Days to Max Wt: 6.7 ± .2 days
  Max Larval Wt: 9.50 g
  Mean No. of Eggs: 71 ± 8
  No. of female Adults: 11
  Total No. of Adults: 15
[1]; 2.5 mM in diet
  % Adult Emergence: 86%
  % Adults: 86%
  % Malformed Adults: 0%
  % Pupation: 100%
  Days to Max Wt: 8.7 ± 0.5 days
  Max Larval Wt: 8.03 g
  Mean No. of Eggs: 21 ± 9
  No. of female Adults: 9
  Total No. of Adults: 12
  maximum larval weight and mean number of eggs: reduced maximum larval weight and the mean number of eggs
[1]; 5 mM in diet
  % Adult Emergence: 13%
  % Malformed Adults: 50%
  % Pupation: 13%
  Days to Max Wt: 10.0 ± 4.2 days
  Max Larval Wt: 6.13 ± .62 g
  No. of female Adults: 0
  larval mortality: all or nearly all larvae died
  weight gain of surviving larvae: no weight gain for 4 or more days
  wrinkled or crumpled wings of moths: observed in significant numbers of moths
[1]; 5 mM in diet, day two
  larvae dead by day two: 60%
[1]; [13]
  Total No. of Adults: 2
[1]
  oral activity: good oral activity
[1]; in 24-72 hours, summary of Tables I and II
  larval mortality (acute toxicity): 100%
[1]; summary of Tables I and II
  time to 100% larval mortality: 24 to 72 h
[5]
  Result: No effect
[6]
  mortality at 500 µg/g: 100%
[7]
  time to 100% mortality: ≤ 1.2 h
[7]; Podisus maculiventris, topical, approx. 50 mg, w/in 1.2 hr
  mortality at 10000 µg/g: 100%
Musca domestica (Adult)
  time to 100% mortality: ≤ 1.5 h
Musca domestica (Adult); Musca domestica, topical, approx. 20 mg, 2/in 1.5 hr
  mortality at 25000 µg/g: 100%
[8]
  mortality at 666 µg/g: 100%
[9]
  mortality at 5000 µg/g: 50%
[4]; Manduca sexta, topical, 125 μg/larva (100 μg/g or 100 ppm), within 24 hr
  mortality at 125 µg/larva: 60%
[4]; topical
  topical activity against the tobacco hornworm (comparison in words): the greatest topical activity
[4]; topical, 50 and 25 ppm
  larval size and number of eggs: reduced larval size and smaller number of eggs
[10]
  mortality at 1000 µg/g: 100%
H. virescens
  effect on larval development time, pupal weight or time to adult emergence: little effect
Musca autumnalis (Adult)
  time to 100% mortality: ≤ 2 h
Musca autumnalis (Adult); Musca autumnalis, topical, approx. 20 mg, w/in 2 hr
  mortality at 25000 µg/g: 100%
H. virescens larvae
  mortality: failed to kill any of the larvae
  symptoms: produced some of the symptoms characteristic of this group of compounds
Estigmene acrea (larvae)
  mortality at 1250 µg/g: 33%
[11]
  mortality at 7150 µg/g: 100%
[12]
  mortality at 1000 µg/g: 100%
